Measurements: patent US11414387B2, “Oxoacridinyl acetic acid derivatives and methods of use” (Stingthera, Inc., priority 2017, dated 2022)

Legend:
hSTING-CTD = hSTING-CTD (Homo sapiens (Human), UniProt Q86WV6); assay: Human STING protein FP competition concentration response assay; format: binding
Experimental: A validated STING ligand, such as c-di-GMP, which is labeled with a read-out signal (e.g., a fluorescence signal such as fluorescein), is mixed with STING-CTD (e.g., mouse STING-CTD or human STING-CTD) with or without the presence of a compound of the present application. Changes in the read-out signal are measured (e.g., by fluorescence anisotropy) to determine the binding of the compound to STING-CTD.
Fluorescein labeled c-di-GMP, a validated STING ligand, was mixed with recombinant hSTING-CTD in a homogenous assay format with or without the presence of a compound of the present application (titrated) in PBS in black 384-well plates (10 μL per well). The fluorescence anisotropy was determined on a PerkinElmer EnVisions multi-mode plate reader. The plate can be read immediately after mixing the reagents or after a few hours without change of signals.
• 1) hSTING (Supplier: HDB) • 2) 2′-Fluo-AHC-c-di GMP (BIOLOG #F009) • 3) 2′3′-cGAMP (BIOLOG #C161) • 4) DMXAA (InvivoGen #tlrl-dmx) • 5) DMSO (Sigma, #D5879-100 mL) • 6) 10×PBS(HDB #MCP-020) • 7) Assay plate, 384-well black plate, solid black bottom (Greiner #784076) • 8) Compound dilution intermediate plate, 384 LDV plate (Labcyte #LP-0200) • 9) Liquid handler, ECHO550 (Labcyte) • 10) Liquid handler, Bravo (Aglient) • 11) Reader, Envision (PerkinElmer) • 12) Centrifuge (Eppendorf) • 13) Multichannel Pipette (Raining) • 14) 10 ml Reservoir (Corning) • 15) 15 ml centrifuge tube (Corning) • 16) Adhesive Plate seals (BioRad) Compound Preparation • a) Containers of each compound were centrifuged at 1000 rpm for 5 min. • b) Compounds were dissolved in DMSO at 30 mM. • c) Compounds were sufficiently vortexed, and centrifuged at 1000 rpm for 1 min. • d) 16 uL of the compound solution was transferred into a LDV Compound Plate. • e) 2-fold serial dilutions of the compound solution were made with DMSO, and 14 concentrations were made in the 384-well LDV Compound Plate. • f) The LDV plate was spun at 1000 rpm for 60 sec and sealed with foil (stored at −20° C. if not used immediately). • g) 335 nL of each compound from the LDV Compound Plate was transferred to Assay Plate (ECHO550). Probe Preparation • a) 200 uM probe stock (2′-Fluo-AHC-c-diGMP) was diluted by ddH2O to 6 uM working concentration. • b) 10-12 uL 6 uM working solution of probe was transferred into the LDV plate. • c) 50 nL per well 6 uM working solution of probe was transferred from the LDV plate to each well of the empty Assay Plate (Greiner 784076) by ECHO550 Buffer mode. • d) Probe final concentration was 30 nM when assay system was 10 uL. • e) The Assay Plate was spun at 1000 rpm for 1 min. Compound Addition • a) After the LDV Compound Plate was prepared, 335 nL compound (ECHO550 DMSO mode) was transferred from the LDV Compound Plate into the Assay Plate (Greiner 784076) containing 50 nL probe in each well according to the Assay Plate layout. • b) DMSO final concentration was 3.35% when assay system was 10 uL. • c) The Assay Plate was spun at 1000 rpm for 1 min. Protein Addition • a) Aliquot of hSTING protein was thawed on ice, briefly to generate uniform solution. • b) 55 uM stock protein was diluted in 1×PBS assay buffer to generate 10 uM final solutions. • c) For test compound and ZPE wells, 10 μL per well of 10 uM protein solutions was added into the Assay Plate containing both the probe and test compounds or DMSO using multichannel pipette. • d) For HPE wells, 10 μL/well of 1×PBS assay buffer instead of protein was added into the Assay Plate containing both the probe and DMSO using multichannel pipette. • e) The Assay Plate was spun at 1000 rpm for Imin. • f) The Assay Plate was incubated at r.t. for 10-20 min.
The EnVision plate reader was used to record the FA value of each well immediately after mixing the reagents or after a few hours without change of signals.
The raw data and calculated data (Fluorescence anisotropy (FA)) was exported from the EnVision reader. […]

mSTING = mSTING (Mus musculus, UniProt Q3TBT3); assay: Radiometric filtration binding competition assay, mSTING
hSTING-WT = hSTING-WT (Homo sapiens (Human), UniProt Q86WV6, H232R); assay: Radiometric filtration binding competition assay, hSTING-WT
hSTING-WT, sequence (Q86WV6 140-379 H232R): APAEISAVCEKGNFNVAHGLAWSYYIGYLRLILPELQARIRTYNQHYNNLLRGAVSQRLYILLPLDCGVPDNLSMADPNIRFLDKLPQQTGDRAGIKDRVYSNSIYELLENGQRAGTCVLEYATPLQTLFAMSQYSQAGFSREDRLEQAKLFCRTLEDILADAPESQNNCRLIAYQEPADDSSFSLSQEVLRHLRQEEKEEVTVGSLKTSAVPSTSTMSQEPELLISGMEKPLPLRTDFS
Experimental: A radiometric filtration binding competition assay was performed to quantify the binding affinity of compounds of the present application for the human or mouse STING protein, or associated HAQ human isoform. […] The resulting dose response was fit by non-linear regression to determine an IC50 value, from which a Ki value for each compound was extrapolated.
The resulting complexes were then filtered, dried, and scintillation fluid was added and the remaining radio signal was measured to determine the degree of compound ligand inhibition. This assay format was optimized for both the WT and HAQ isoforms of the human protein and the mouse orthologue protein.
Probe Concentration: Minimum concentration that achieved max assay window • g. Assay Format: Scintillation Proximity Bead or Filtration Binding Plate • h. […] Assay incubation times for successive incubation steps
WT-hSWAT: WT_FBA_HIS-SUMO-hSWAT IC50 (μM) (“WT”=Wild-type); HAQ-hSWAT: HAQ_FBA_HIS-SUMO-hSWAT IC50 (μM) (“HAQ”=human HAQ allele of STING protein); and WT-mSWAT: MOUSE_FBA_HIS-SUMO-mnSWAT IC50 (μM) which is the mouse isoform of STING protein.

mSTING-R232 = mSTING-R232 (Mus musculus, UniProt Q3TBT3); assay: STING differential scanning fluorimetry (DSF) assay, mouse STING; settings: net shift in melting temperature
hSTING-R232 = hSTING-R232 (Homo sapiens (Human), UniProt Q86WV6, H232R); assay: STING differential scanning fluorimetry (DSF) assay, WT human STING; settings: WT (R232) human STING aa140-379, net shift in melting temperature
hSTING-R232, sequence (Q86WV6 140-379 H232R): as above

STING protein = STING protein (Homo sapiens (Human), UniProt Q86WV6, H232R); assay: Cell based reporter assay of IRF activation (IRF-luciferase), THP1-dual-KI R232; settings: read-out: THP1-dual-KI R232_IRF(Luciferase)_Activity Maximum measured (%)
STING protein, sequence (Q86WV6 whole entry H232R): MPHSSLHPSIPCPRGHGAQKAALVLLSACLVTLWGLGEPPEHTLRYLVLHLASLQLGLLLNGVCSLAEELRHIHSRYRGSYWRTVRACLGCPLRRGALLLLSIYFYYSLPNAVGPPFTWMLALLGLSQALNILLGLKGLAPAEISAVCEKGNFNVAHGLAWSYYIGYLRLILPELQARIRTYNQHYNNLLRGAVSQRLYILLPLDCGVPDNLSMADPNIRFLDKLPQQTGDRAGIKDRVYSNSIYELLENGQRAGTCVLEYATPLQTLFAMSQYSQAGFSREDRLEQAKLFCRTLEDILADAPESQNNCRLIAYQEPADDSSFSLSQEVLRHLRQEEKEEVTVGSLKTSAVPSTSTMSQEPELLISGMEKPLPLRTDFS
Source text: Briefly, THP-1 monocytes were transfected and selected for stable integration of 2 reporter constructs. Clones incorporating stably integrated vectors were further selected by antibiotic resistance to blastocidin and zeocin. The reporter constructs included: (1) firefly luciferase reporter gene under the control of an ISG54 promoter fused to five interferon (IFN)-stimulated response elements to measure IRF transcription factor binding activity and (2) secreted embryonic alkaline phosphatase reporter gene under transcription control of an IFN-beta minimal promoter fused to 5 copies of the NFkB consensus transcriptional response element and 3 copies of the c-Rel binding site.
The resulting THP-1 cell line was further modified to incorporate 3 amino acid point mutations (H71R A230G Q293R). This modification of the native TMEM173 gene in THP-1 cells (HAQ) was designed to produce a cell reporter that expressed the most common allelic variant in the human population (THP-1 R232, available from InvivoGen). Alternatively, the TMEM173 gene was knocked out to provide a congenic control to counter-screen for compound activation that was independent of the STING protein (THP-1 STING KO).
Once cell lines were established, reporter assay protocols were developed and optimized to screen small molecule compounds for agonist activity. Assay optimization for efficacy and Z′ value included titration of the following parameters:
• 1. Cell pre-activation with PMA • 2. Cell seeding density • 3. DMSO tolerance • 4. Media selection • 5. FBS concentration • 6. Incubation time • 7. Co-Assessment of cell viability by CTG assay • 8. Appropriate HPE and ZPE controls • 9. Dose Response Titration Final Assay SOP Conditions • 1. No pre-activation with PMA • 2. 5×10^4 cells/well in 96 well plate format • 3. <0.5% DMSO • 4. […] 10% FBS • 6. 14-18 hr incubation • 7. Cell Titer Glo reagent (Promega) following supernatant removal • 8.

hSTING-CTD, sequence (Q86WV6 135-379): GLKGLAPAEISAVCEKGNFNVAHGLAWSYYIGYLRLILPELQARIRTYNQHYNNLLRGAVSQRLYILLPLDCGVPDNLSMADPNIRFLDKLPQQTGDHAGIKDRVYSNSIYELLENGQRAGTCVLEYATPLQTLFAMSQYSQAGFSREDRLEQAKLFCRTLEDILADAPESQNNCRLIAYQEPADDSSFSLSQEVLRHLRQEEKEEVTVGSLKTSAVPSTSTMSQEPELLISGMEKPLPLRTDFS

Row | SMILES | IC50 (hSTING-CTD) [µM] | also measured
1 | O=C(O)Cn1c2cc(F)ccc2c(=O)c2ccc(Cl)c(Cl)c21 [Compound 30] | > 1000 | –
2 | O=C(O)Cn1c2cccc(F)c2c(=O)c2ccc(Cl)c(Cl)c21 [Compound 31] | 500 to 1000 | –
3 | Cc1cc(Cl)c2c(c1)c(=O)c1ccc(C)cc1n2CC(=O)O [Compound 38] | 500 to 1000 | –
4 | O=C(O)Cn1c2ccccc2c(=O)c2cc(C#CC3CCCCC3)ccc21 [Compound 39] | 100 to 500 | –
5 | O=C(O)Cn1c2ccccc2c(=O)c2cc(CCC3CCCCC3)ccc21 [Compound 40] | < 100 | –
6 | CC(C)c1ccc(-c2ccc3c(c2)c(=O)c2ccccc2n3CC(=O)O)cc1 [Compound 41] | < 100 | –
7 | COc1ccccc1CCc1ccc2c(c1)c(=O)c1ccccc1n2CC(=O)O [Compound 42] | 500 to 1000 | –
8 | COc1cccc(CCc2ccc3c(c2)c(=O)c2ccccc2n3CC(=O)O)c1 [Compound 43] | 500 to 1000 | –
9 | CSc1ccc2c(=O)c3ccc(SC)c(Cl)c3n(CC(=O)O)c2c1 [Compound 46] | > 1000 | –
10 | O=C(O)Cn1c2ccccc2c(=O)c2c(Cl)c(Cl)ccc21 [Compound 48] | > 1000 | –
11 | CCc1cccc2c1c(=O)c1ccc(Cl)c(Cl)c1n2CC(=O)O [Compound 49] | > 1000 | –
12 | O=C(O)Cn1c2ccccc2c(=O)c2ccc(Cl)c(Br)c21 [Compound 51] | 100 to 500 | –
13 | O=C(O)Cn1c2ccccc2c(=O)c2ccc(Br)c(Cl)c21 [Compound 52] | 100 to 500 | –
14 | CC(C)c1ccc(-c2cccc3c2c(=O)c2ccc(Cl)c(Cl)c2n3CC(=O)O)cc1 [Compound 54] | 100 to 500 | –
15 | CC(C)c1cccc2c1c(=O)c1ccc(Cl)c(Cl)c1n2CC(=O)O [Compound 55] | 500 to 1000 | –
16 | O=C(O)Cn1c2ccccc2c(=O)c2c(Cl)ccc(Cl)c21 [Compound 56] | 500 to 1000 | –
17 | O=C(O)Cn1c2ccccc2c(=O)c2cc(Cl)c(Cl)cc21 [Compound 57] | > 1000 | –
18 | O=C(O)Cn1c2ccccc2c(=O)c2cc(Cl)cc(Cl)c21 [Compound 58] | > 1000 | –
19 | Cc1cc2c(=O)c3ccc(Cl)c(Cl)c3n(CC(=O)O)c2cc1N1CCCCC1 [Compound 62] | > 1000 | –
20 | Cc1cc2c(=O)c3ccc(Cl)c(Cl)c3n(CC(=O)O)c2cc1N1CCOCC1 [Compound 63] | 100 to 500 | –
21 | Cc1cc2c(=O)c3ccc(Cl)c(Cl)c3n(CC(=O)O)c2cc1N(C)C [Compound 64] | 100 to 500 | –
22 | O=C(O)Cn1c2cc(-c3ccccc3)ccc2c(=O)c2ccc(Cl)c(Cl)c21 [Compound 65] | < 100 | –

Row | SMILES | IC50 (hSTING-CTD) [µM] | also measured
23 | CC(C)c1ccc(-c2ccc3c(c2)c(=O)c2ccc(Cl)c(Cl)c2n3CC(=O)O)cc1 [Compound 72] | < 100 | –
24 | CC1(C)CCC=C(c2ccc3c(c2)c(=O)c2ccccc2n3CC(=O)O)C1 [Compound 73] | 100 to 500 | –
25 | Cc1ccccc1CCc1ccc2c(c1)c(=O)c1ccccc1n2CC(=O)O [Compound 74] | 100 to 500 | –
26 | Cc1ccc2c(=O)c3cc(CCC4CCCCC4)ccc3n(CC(=O)O)c2c1 [Compound 76] | 100 to 500 | –
27 | Cc1ccc2c(=O)c3cc(-c4ccc(C(C)C)cc4)ccc3n(CC(=O)O)c2c1 [Compound 77] | 100 to 500 | –
28 | Cc1ccc2c(=O)c3cc(Br)ccc3n(CC(=O)O)c2c1 [Compound 78] | > 1000 | –
29 | O=C(O)Cn1c2cc(Br)ccc2c(=O)c2ccc(Cl)c(Cl)c21 [Compound 79] | 100 to 500 | –
30 | O=C(O)Cn1c2ccccc2c(=O)c2cc(/C=C\c3ccccc3)ccc21 [Compound 80] | 100 to 500 | –
31 | O=C(O)Cn1c2ccccc2c(=O)c2ccc(F)c(Cl)c21 [Compound 83] | > 1000 | –
32 | O=C(O)Cn1c2ccccc2c(=O)c2ccc(Cl)c(F)c21 [Compound 84] | > 1000 | –
33 | CC1(C)c2ccccc2N(CC(=O)O)c2ccc(Br)cc21 [Compound 86] | 500 to 1000 | –
34 | O=C(O)Cn1c2ccc(CCc3ccccc3)cc2c(=O)c2ccc(Cl)c(Cl)c21 [Compound 88] | 100 to 500 | –
35 | O=C(O)Cn1c2ccc(Br)cc2c(=O)c2ccc(Cl)c(Cl)c21 [Compound 89] | 100 to 500 | –
36 | O=C(O)CN1c2ccccc2Cc2cc(CCC3CCCCC3)ccc21 [Compound 90] | 500 to 1000 | –
37 | CC(C)c1ccc(-c2ccc3c(=O)c4ccc(Cl)c(Cl)c4n(CC(=O)O)c3c2)cc1 [Compound 91] | < 100 | –
38 | Cc1cc2c(=O)c3ccc(Cl)c(Cl)c3n(CC(=O)O)c2cc1F [Compound 93] | 500 to 1000 | –
39 | O=C(O)Cn1c2ccccc2c(=O)c2ccc(Cl)c(OCCO)c21 [Compound 328] | – | IC50 (mSTING): > 300 µM; IC50 (hSTING-WT): > 300 µM; MOUSE DSF_6xHIS-SUMO Tm Shift (° C.) (mSTING-R232): C (“C” = 5-15° C.); WT_DSF_hSWAT Tm Shift (° C.) (hSTING-R232): B (“B” = 0-2° C.); Emax (STING protein): < 5%
40 | O=C(O)Cn1c2ccccc2c(=O)c2ccc(Cl)c(OCCCO)c21 [Compound 329] | – | IC50 (mSTING): > 300 µM; IC50 (hSTING-WT): > 300 µM; MOUSE DSF_6xHIS-SUMO Tm Shift (° C.) (mSTING-R232): C (“C” = 5-15° C.); WT_DSF_hSWAT Tm Shift (° C.) (hSTING-R232): B (“B” = 0-2° C.); Emax (STING protein): < 5%
41 | COCCOc1c(Cl)ccc2c(=O)c3ccccc3n(CC(=O)O)c12 [Compound 330] | – | IC50 (mSTING): > 300 µM; IC50 (hSTING-WT): > 300 µM; MOUSE DSF_6xHIS-SUMO Tm Shift (° C.) (mSTING-R232): B (“B” = 0-5° C.); WT_DSF_hSWAT Tm Shift (° C.) (hSTING-R232): B (“B” = 0-2° C.); Emax (STING protein): < 5%
42 | CN(C)c1c(Cl)ccc2c(=O)c3ccc(Nc4ccccc4)cc3n(CC(=O)O)c12 [Compound 332] | – | IC50 (mSTING): < 20 µM; IC50 (hSTING-WT): < 20 µM; MOUSE DSF_6xHIS-SUMO Tm Shift (° C.) (mSTING-R232): D (“D” > 15° C.); WT_DSF_hSWAT Tm Shift (° C.) (hSTING-R232): D (“D” > 7° C.); Emax (STING protein): > 50%
43 | COc1cccc2c(=O)c3ccc(Cl)c(OC)c3n(CC(=O)O)c12 [Compound 333] | – | IC50 (mSTING): > 300 µM; IC50 (hSTING-WT): > 300 µM; MOUSE DSF_6xHIS-SUMO Tm Shift (° C.) (mSTING-R232): B (“B” = 0-5° C.); WT_DSF_hSWAT Tm Shift (° C.) (hSTING-R232): B (“B” = 0-2° C.); Emax (STING protein): 5 to 25%
